Source: patent publication US20250243160A1, “INDOLE DERIVATIVES FOR TARGETING AUTOPHAGY” (Automera PTE. LTD, priority 2024, published 2025)

Legend:
[1] = molecular target: T1, p62 oligomers (Homo sapiens, UniProt Q13501); test: p62 oligomerization assay by Western blot in HeLa cells; assay type: cell-based; settings: 24 hours treatment, relative to vehicle control (DMSO)
T1 construct: endogenous in cells; host or cells: HeLa
Procedure: HeLa cells were seeded in 6-well plates (700,000 cells) and allowed to adhere overnight. Media was replaced one hour before administering either vehicle (DMSO) or test compounds. After 24 hours of treatment, the media was discarded, and cells were rinsed once with ice-cold 1×PBS before detached from plates with ice-cold RIPA Lysis and Extraction Buffer (Thermo Fisher Scientific) which was supplemented with protease and phosphatase inhibitors. The resulting cell suspensions were transferred to pre-chilled microcentrifuge tubes, incubated on ice for 20 min with intermittent mixing and then centrifuged at 12,000 rpm for 20 min at 4° C. The supernatants were then aspirated slowly and transferred into new tubes kept on ice. The protein concentration in the samples was determined using BCA kit (Thermo Fisher Scientific) as per manufacturer's instructions.
For the p62 oligomerization and LC3 lipidation assays, cell lysates were prepared using RIPA buffer supplemented with 2% SDS and benzonase (Sigma). The lysates were then combined with 4× Laemmli protein sample buffer (Bio-Rad), heated at 70° C. for 10 min and subjected to a brief centrifugation of 10-15 seconds.
For p62 oligomerization and LC3 lipidation assays, lysates containing 30 μg of protein and for BRD4 and FKBP12(F36V) degradation assays, lysates containing 20 μg of protein, were loaded slowly into the wells of 4-20% gradient Tris-glycine gels (Bio-Rad). The gels were run at 100V until completion and transferred onto PVDF membranes. Membranes were blocked using 5% milk in TBS-Tween (0.1%) buffer at room temperature for 1 hour. The membranes were incubated with primary antibody in 5% milk-TBST with shaking, overnight at 4° C. The primary antibodies used were: p62 (Novus Biologicals 2C11, H00008878-MO1), LC3A/B (Cell Signalling Technology D3U4C, 12741S), FKBP12 (Abcam ab24373), BRD4 (Cell Signalling Technology E2A7X, 13440S), GAPDH (Cell Signalling Technology D4C6R, 97166S), and β-Actin (Proteintech 66009-1-Ig). Following primary antibody incubation, membranes were washed thrice with TBST 10 min before and after incubation with secondary-HRP conjugated antibody in 5% milk-TBST for 1 hour at room temperature. The secondary antibodies used were: Anti-Mouse IgG HRP Conjugate (Promega W4021B) and Anti-Rabbit IgG HRP Conjugate (Promega W4011). For the p62 oligomerization assay, the total protein levels were assessed using Ponceau staining (Thermo Fisher Scientific) of PVDF membrane as per recommendation by manufacturer's guidelines.
Imaging was acquired using SuperSignal™ West Pico PLUS Chemiluminescent Substrate (Thermo Fisher Scientific) with iBright Invitrogen FL100 imaging system. Band signal intensity, reflective of protein concentrations, were quantified using Invitrogen™ iBright™ Analysis and Image J software.
HeLa cells were treated with compounds for 24 hours to evaluate the effect of these compounds on p62 oligomerisation activity. The resulting changes in levels of p62 oligomers were assessed by Western blotting, as described in experimental procedures. The fold change of p62 oligomer levels induced by compound treatment relative to vehicle control (DMSO) was determined and summarized in Table 8. Specifically, FIGS. 2A-C show Western blot images and their corresponding quantification showing the levels of high molecular weight (100-200 kDa) p62 oligomers by 24 hours compound treatments at listed concentrations, relative to vehicle control (DMSO) in HeLa cells. Protein loading consistencies was assessed by Ponceau staining (not shown).

[2] = system: p62 puncta; test: p62 puncta immunocytochemistry imaging in HeLa cells; assay type: cell-based; settings: 24 hours treatment, relative to vehicle control (DMSO)
In short: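 Following 24 h compound or DMSO treatment, HeLa cells were fixed and immunostained for p62 with DAPI counterstain. Puncta counted by imaging on EVOS M7000 (20× objective) or Operetta CLS (63× water objective); reported as fold change versus DMSO.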

T1 sequence (Q13501 whole entry): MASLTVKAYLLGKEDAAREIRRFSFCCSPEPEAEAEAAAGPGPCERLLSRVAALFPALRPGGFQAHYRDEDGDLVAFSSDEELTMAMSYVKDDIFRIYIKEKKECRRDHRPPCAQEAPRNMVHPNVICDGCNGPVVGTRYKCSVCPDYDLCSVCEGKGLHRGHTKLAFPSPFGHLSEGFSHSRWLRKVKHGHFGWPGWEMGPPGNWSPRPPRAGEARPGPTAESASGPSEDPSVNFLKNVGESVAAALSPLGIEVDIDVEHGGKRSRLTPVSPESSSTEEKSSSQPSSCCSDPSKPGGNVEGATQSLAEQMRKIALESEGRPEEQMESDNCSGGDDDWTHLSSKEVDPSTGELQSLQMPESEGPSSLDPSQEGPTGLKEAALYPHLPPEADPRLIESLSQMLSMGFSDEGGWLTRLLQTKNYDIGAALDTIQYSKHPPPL

Row | Structure (SMILES) | p62 oligomerization (fold change of p62 oligomer levels) [1] | p62 puncta (fold change of p62 puncta levels) [2]
1 | OCCNCc1cc(F)cc2c1ccn2Cc1ccc(F)cc1 [Compound 44] | ++ (>2-fold change relative to DMSO control) | ++ (>2-fold change in p62 puncta levels relative to DMSO control)
2 | OCCNCc1cccc2c1ccn2Cc1ccccc1 [Compound 1, 2-(((1-benzyl-1H-indol-4-yl)methyl)amino)ethan-1-ol] | ++ (>2-fold change relative to DMSO control) | + (<2-fold change in p62 puncta levels relative to DMSO control)
3 | OCCNCc1cc(F)cc2c1ccn2Cc1ccc(Cl)cc1 [Compound 45, 2-(((1-(4-chlorobenzyl)-6-fluoro-1H-indol-4-yl)methyl)amino)ethan-1-ol] | ++ (>2-fold change relative to DMSO control) | ++ (>2-fold change in p62 puncta levels relative to DMSO control)
